Experiment in all cases: relative viability (nuclei count vs DMSO), 5 days (fraction); higher = more cells survive
Compound in experiment [1]: Cc1ccc(NC(=O)c2ccc(CN3CCN(C)CC3)cc2)cc1Nc1nccc(-c2cccnc2)n1 [Imatinib] + COc1cccc2cc(-c3nc([C@H]4CC[C@H](C(=O)O)CC4)n4ncnc(N)c34)[nH]c12 [OSI-027] (partner 0.5 µM)
In short, it runs like this:
(§1)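 Lung cancer cell lines were seeded in 1536-well plates and dosed by pin tool the next day, with either a single drug or a fixed anchor-drug dose combined with five library-drug doses (not always all listed) spaced in √10 steps. Five days later, one step fixed the cells and stained their nuclei (final 0.05% Triton X-100, 1% formaldehyde, 1 ug/ml Hoechst), and nuclei were counted on 4× images. Relative viability is the nuclei count in treated wells divided by the count in vehicle wells, and each value is the median of duplicate plates.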

Compound in experiment [2]: Cc1ccc(NC(=O)c2ccc(CN3CCN(C)CC3)cc2)cc1Nc1nccc(-c2cccnc2)n1 [Imatinib] + CS(=O)(=O)N1CCN(Cc2cc3nc(-c4cccc5[nH]ncc45)nc(N4CCOCC4)c3s2)CC1 [Pictilisib] (partner 1 µM)
In short, it runs like this: as §1

Compound in experiment [3]: Cc1ccc(NC(=O)c2ccc(CN3CCN(C)CC3)cc2)cc1Nc1nccc(-c2cccnc2)n1 [Imatinib] + C[C@@H](Oc1cc(-c2cnn(C3CCNCC3)c2)cnc1N)c1c(Cl)ccc(F)c1Cl [Crizotinib] (partner 1 µM)
In short, it runs like this: as §1

Compound in experiment [4]: Cc1ccc(NC(=O)c2ccc(CN3CCN(C)CC3)cc2)cc1Nc1nccc(-c2cccnc2)n1 [Imatinib] + Cc1nc(NC(=O)N2CCC[C@H]2C(N)=O)sc1-c1ccnc(C(C)(C)C(F)(F)F)c1 [Alpelisib] (partner 2 µM)
Summed up:
as §1

Consider NCI-H1792, for which the relative viability in experiment [1] (first compound 0.02 µM) is 0.84; in experiment [1] (first compound 0.06325 µM), 0.549; in experiment [1] (first compound 0.2 µM) it was 0.697; in experiment [1] (first compound 0.6325 µM) it was 0.162; in experiment [1] (first compound 2 µM) it was 0.673; in experiment [2] (first compound 0.02 µM), 0.264. Moreover, the relative viability came to 0.198 in experiment [2] (first compound 0.06325 µM); 0.214 in experiment [2] (first compound 0.2 µM); 0.237 in experiment [2] (first compound 0.6325 µM); 0.277 in experiment [2] (first compound 2 µM); 1.4 in experiment [3] (first compound 0.02 µM); 0.931 in experiment [3] (first compound 0.2 µM). Moreover, the relative viability is 0.92 in experiment [3] (first compound 0.6325 µM); 0.946 in experiment [3] (first compound 2 µM); 0.921 in experiment [4] (first compound 0.02 µM); 0.515 in experiment [4] (first compound 0.06325 µM); 0.661 in experiment [4] (first compound 0.2 µM); 0.507 in experiment [4] (first compound 0.6325 µM). Further, the relative viability in experiment [4] (first compound 2 µM) worked out at 0.638.

With NCI-H1915, the relative viability in experiment [1] (first compound 0.02 µM) worked out at 0.61; in experiment [1] (first compound 0.2 µM) it was 0.67; in experiment [1] (first compound 0.6325 µM), 0.6; in experiment [1] (first compound 2 µM), 0.599; in experiment [2] (first compound 0.02 µM) it was 0.962; in experiment [2] (first compound 0.2 µM), 1.01. Also, the relative viability stood at 0.958 in experiment [2] (first compound 0.6325 µM); 0.871 in experiment [2] (first compound 2 µM); 0.905 in experiment [3] (first compound 0.02 µM); 1.03 in experiment [3] (first compound 0.2 µM); 0.885 in experiment [3] (first compound 0.6325 µM); 0.897 in experiment [3] (first compound 2 µM). Also, the relative viability in experiment [4] (first compound 0.02 µM) amounted to 1.07; in experiment [4] (first compound 0.2 µM), 1.09; in experiment [4] (first compound 0.6325 µM) it was 1.05; in experiment [4] (first compound 2 µM), 0.966.

Take NCI-H1944: the relative viability in experiment [1] (first compound 0.02 µM) was 0.423; in experiment [1] (first compound 0.06325 µM) it was 0.267; in experiment [1] (first compound 0.2 µM) it was 0.403; in experiment [1] (first compound 0.6325 µM), 0.425; in experiment [1] (first compound 2 µM) it was 0.381; in experiment [2] (first compound 0.02 µM), 0.353. Moreover, the relative viability in experiment [2] (first compound 0.2 µM) came out at 0.368; in experiment [2] (first compound 0.6325 µM) it was 0.324; in experiment [2] (first compound 2 µM) it was 0.335; in experiment [3] (first compound 0.02 µM) it was 1.24; in experiment [3] (first compound 0.6325 µM), 0.935; in experiment [4] (first compound 0.02 µM) it was 0.85. The relative viability amounted to 0.893 in experiment [4] (first compound 0.2 µM), 0.714 in experiment [4] (first compound 0.6325 µM) and 0.84 in experiment [4] (first compound 2 µM).

With NCI-H1975, the relative viability came out at 0.843 in experiment [1] (first compound 0.02 µM); 0.772 in experiment [1] (first compound 0.06325 µM); 0.827 in experiment [1] (first compound 0.2 µM); 0.579 in experiment [1] (first compound 0.6325 µM); 0.549 in experiment [1] (first compound 2 µM); 0.332 in experiment [2] (first compound 0.02 µM). The relative viability was 0.311 in experiment [2] (first compound 0.06325 µM); 0.294 in experiment [2] (first compound 0.2 µM); 0.28 in experiment [2] (first compound 0.6325 µM); 0.324 in experiment [2] (first compound 2 µM); 1.1 in experiment [3] (first compound 0.02 µM); 1.16 in experiment [3] (first compound 0.06325 µM). Besides, the relative viability in experiment [3] (first compound 0.2 µM) worked out at 1.1; in experiment [3] (first compound 0.6325 µM), 0.916; in experiment [3] (first compound 2 µM) it was 1.07; in experiment [4] (first compound 0.02 µM), 0.61; in experiment [4] (first compound 0.06325 µM), 0.721; in experiment [4] (first compound 0.2 µM), 0.775. The values for the relative viability in experiment [4] (first compound 0.6325 µM) and in experiment [4] (first compound 2 µM) were 0.621 and 0.553, respectively.

NCI-H1993: the relative viability in experiment [1] (first compound 0.02 µM) amounted to 0.538; in experiment [1] (first compound 0.06325 µM), 0.491; in experiment [1] (first compound 0.2 µM), 0.617; in experiment [1] (first compound 0.6325 µM), 0.543; in experiment [1] (first compound 2 µM), 0.625; in experiment [2] (first compound 0.06325 µM), 0.861. Besides, the relative viability in experiment [2] (first compound 0.2 µM) is 0.805; in experiment [2] (first compound 0.6325 µM), 0.997; in experiment [2] (first compound 2 µM), 0.924; in experiment [3] (first compound 0.06325 µM), 0.905; in experiment [3] (first compound 0.6325 µM), 0.927; in experiment [3] (first compound 2 µM), 0.815. The relative viability in experiment [4] (first compound 0.06325 µM) turned out to be 0.792; in experiment [4] (first compound 0.2 µM), 0.533; in experiment [4] (first compound 0.6325 µM), 0.621; in experiment [4] (first compound 2 µM) it was 0.534.

On to NCI-H2009, for which the relative viability in experiment [1] (first compound 0.02 µM) was 0.666; in experiment [1] (first compound 0.2 µM), 0.672; in experiment [1] (first compound 0.6325 µM) it was 0.623; in experiment [1] (first compound 2 µM) it was 0.582; in experiment [2] (first compound 0.02 µM) it was 0.809; in experiment [2] (first compound 0.06325 µM), 0.429. Moreover, the relative viability in experiment [2] (first compound 0.2 µM) was found to be 0.909; in experiment [2] (first compound 0.6325 µM) it was 0.878; in experiment [2] (first compound 2 µM), 0.896; in experiment [3] (first compound 0.02 µM), 1.09; in experiment [3] (first compound 0.06325 µM) it was 1.23; in experiment [3] (first compound 0.2 µM), 0.975. In addition, the relative viability was 1.02 in experiment [3] (first compound 0.6325 µM); 1.04 in experiment [3] (first compound 2 µM); 1.18 in experiment [4] (first compound 0.02 µM); 1.24 in experiment [4] (first compound 0.06325 µM); 1.26 in experiment [4] (first compound 0.2 µM); 1.21 in experiment [4] (first compound 0.6325 µM). Moreover, the relative viability in experiment [4] (first compound 2 µM) was 1.13.

The record behind these values is the supplement of paper PMC10307832.
